# Measurements published in patent US20250361240A1, “PYRANOPYRIDINE COMPOUND, PROCESS FOR PREPARING THE SAME, PHARMACEUTICAL COMPOSITION AND USE THEREOF” (Zhejiang Yangli Pharmaceutical Technology Co., Ltd., priority 2024, published 2025).
# pIC50: −log10 of the molar value. Read-outs that look alike come from different tables or passages of the source.
# Tests used:
# human CYP11B2 = human CYP11B2 (Homo sapiens (Human), UniProt P19099); assay: Inhibitory activity against hCYP11B2 in G-402 CYP11B2 high expression stable transformants (aldosterone HTRF); format: cell-based
# Experimental: 1. Experimental System: G-402 CYP11B2 or CYP11B1 High Expression Stable Transformants
# The above-mentioned high-expression stable transformants were constructed based on human […] cell line G-402. The artificial lentiviruses were introduced into human CYP11B2 (NM_000498.3) and CYP11B1 (NM_000497.4), respectively.
# Maintenance medium: McCoy's 5A (modified, #16600082, GIBCO)+10% FBS (GIBCO)+1 μg/mL puromycin (A1113803, GIBCO).
# Resuscitation and seeding medium: McCoy's 5A (modified, #16600082, GIBCO)+10% FBS (GIBCO).
# Reaction medium: DMEM/F12 (#11320033, GIBCO)+2.5% activated charcoal filtered FBS (S11695, R & D).
# Seeding: Cells were cultured to a suitable state after resuscitation with maintenance medium, and 96-well flat plates were seeded with seeding medium according to 1×10^4/100 μL/well (unified cell volume).
# Changing solution: The supernatant was aspirated and discarded after seeding overnight (>12 hours) and adherence. 100-150 μL/well serum-free medium was added, and after being aspirated. After aspiration, 50 μL/well reaction medium was added for later use.
# Formulation: Compound was diluted with reaction medium containing 0.4 μM substrate (final experimental concentration is 0.2 μM):
# CYP11B2 substrate: 11-deoxycorticosterone (11-deoxycorticosterone, S4243, selleckchem). The final reaction concentration was 0.2 μM
# Loading: The above compound dilutions were added to the cell plates at 50 μL/well. The background and control wells were set.
# Treating and sampling: The cell plates were incubated in a cell incubator for 16 hours after loading, and then each cell plate was centrifuged at 450 g for 2 min. 75 μL supernatant was transferred to a collection plate and frozen at −80° C. for future use (or direct detection).
# Detection: Homogeneous time-resolved fluorescence kit (Cisbio HTRF kit, Cat.64ALDPEG, Cat.62CRTPEG) was used to determine the concentration of aldosterone or cortisol in the supernatant.
# Analysis: The absolute IC50 (Abs IC50) for each compound was calculated using a four parameter fit.
# CYP1A2 = CYP1A2 (Homo sapiens (Human), UniProt P05177); assay: In vitro inhibitory activity against common CYP450 enzymes: CYP1A2; format: in vitro ADME; settings: microsomes, substrate Phenacetin; read-out: IC50 CYP1A2
# Experimental: (§1) A working solution of the test compound was prepared in a solvent of dimethyl sulfoxide (DMSO) (starting at a final concentration of 50 μM, 3-fold dilution of 7 concentration points). The corresponding microsomes (CORNING, Cat No.452117) and the corresponding substrate solution were prepared (components were shown in Table 2). The working solution of the test compound and the corresponding microsomes were mixed with the corresponding substrate solution and the HLM working solution. The mixture was preheated in a 37.0° C. water bath for 10 min. NADPH cofactor (BONTAC, Cat No.BT04) was added. The resultant mixture was incubated for 10 min in a 37.0° C. water bath. The reaction was terminated by adding cold stop solution. [table] [table] The sample was centrifuged at 4000 rpm for 20 min to precipitate protein and the supernatant was transferred to HPLC water and shaken for 10 min.
# CYP2D6 = CYP2D6 (Homo sapiens (Human), UniProt P10635); assay: In vitro inhibitory activity against common CYP450 enzymes: CYP2D6; format: in vitro ADME; settings: microsomes, substrate Dextromethorphan
# Experimental: as §1
# aldosterone synthesis = assay: Pharmacodynamic test in cynomolgus monkeys with ACTH stimulation: aldosterone in plasma; format: in vivo, cynomolgus monkeys (Macaca fascicularis)
# From the text: (§2) Adult cynomolgus monkeys (Macaca fascicularis) with suitable body weight and age were selected. 1 male and 1 female cynomolgus monkeys were used for experiment. The adaptation period was 1 week. On the day of the experiment, monkeys were individually housed in stainless steel mesh cages for testing.
# (§3) Oral treatment and ACTH working solution (working solution diluted to the desired concentration in PBS sterile solution by ultrapure water filtration through a 0.22 μm filter using Tetracosactrin (HY-P0060, MCE)) were administered as follows: • T=0, 2 monkeys in each group were orally administered 0.5 mg/kg (compound was suspended in 5% aqueous sodium hydroxymethylcellulose solution as vehicle) in a fixed volume of 2 mL/kg; • T=+1 hour (i.e., 1 hour after administration), 14.5 μg/kg of the aforementioned ACTH working solution was injected intramuscularly.
# (§4) Sampling test: Blood samples (collected in EDTA anticoagulant tubes) were collected before oral administration (Pre-dose) and 0.5 h, 1 h, 2 h, 4 h, 6 h and 12 h after administration for cortisol concentration measurement in plasma. The blood was centrifuged at 10000 rpm for 15 minutes at 4° C., followed by separation of the plasma and uniform storage at −80° C. for further analysis using an Roche biochemical analyzer to detect aldosterone and cortisol in plasma, and a portion of the plasma (0.5 h, 1 h, 2 h, 4 h, 6 h, and 12 h after administration, and an additional blood collection after 24 h) was taken simultaneously to determine the pharmacokinetic parameters by LC/MS.
# (§5) The above experiment was repeated except that: T=0, two monkeys in each group were orally administered at a dose of 0.05 mg/kg (compound was suspended in 5% aqueous sodium hydroxymethylcellulose as vehicle) in a fixed volume of 2 mL/kg.
# cortisol levels = assay: Pharmacodynamic test in cynomolgus monkeys with ACTH stimulation: cortisol in plasma; format: in vivo, cynomolgus monkeys (Macaca fascicularis)
# From the text: as §2, §3, §4, §5
# [1] = Pharmacokinetic test in cynomolgus monkeys (LC/MS); format: in vivo, cynomolgus monkeys (Macaca fascicularis); settings: both sexes, cynomolgus monkey, plasma; for AUC(0-t): read-out: AUC0-24 h
# From the text: as §2, §3, §4, §5
# [2] = 0.05 mg/kg oral, 1 h (ACTH at +1 hour)
# [3] = 0.5 mg/kg oral, 1 h (ACTH at +1 hour)
# Sequence of human CYP11B2 (P19099 25-503): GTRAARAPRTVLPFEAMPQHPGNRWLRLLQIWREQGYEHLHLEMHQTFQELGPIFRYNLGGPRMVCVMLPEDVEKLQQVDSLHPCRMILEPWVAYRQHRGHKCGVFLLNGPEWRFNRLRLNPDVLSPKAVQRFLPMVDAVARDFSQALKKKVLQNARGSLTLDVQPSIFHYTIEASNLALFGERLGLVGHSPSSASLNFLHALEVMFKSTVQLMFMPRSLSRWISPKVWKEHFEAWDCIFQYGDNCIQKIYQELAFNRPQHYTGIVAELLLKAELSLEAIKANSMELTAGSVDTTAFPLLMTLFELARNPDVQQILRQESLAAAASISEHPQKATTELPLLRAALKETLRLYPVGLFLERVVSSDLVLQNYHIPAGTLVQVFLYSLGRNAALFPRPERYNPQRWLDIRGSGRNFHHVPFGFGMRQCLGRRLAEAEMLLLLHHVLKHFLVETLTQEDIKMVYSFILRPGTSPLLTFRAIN
# Sequence of CYP1A2 (P05177 whole entry): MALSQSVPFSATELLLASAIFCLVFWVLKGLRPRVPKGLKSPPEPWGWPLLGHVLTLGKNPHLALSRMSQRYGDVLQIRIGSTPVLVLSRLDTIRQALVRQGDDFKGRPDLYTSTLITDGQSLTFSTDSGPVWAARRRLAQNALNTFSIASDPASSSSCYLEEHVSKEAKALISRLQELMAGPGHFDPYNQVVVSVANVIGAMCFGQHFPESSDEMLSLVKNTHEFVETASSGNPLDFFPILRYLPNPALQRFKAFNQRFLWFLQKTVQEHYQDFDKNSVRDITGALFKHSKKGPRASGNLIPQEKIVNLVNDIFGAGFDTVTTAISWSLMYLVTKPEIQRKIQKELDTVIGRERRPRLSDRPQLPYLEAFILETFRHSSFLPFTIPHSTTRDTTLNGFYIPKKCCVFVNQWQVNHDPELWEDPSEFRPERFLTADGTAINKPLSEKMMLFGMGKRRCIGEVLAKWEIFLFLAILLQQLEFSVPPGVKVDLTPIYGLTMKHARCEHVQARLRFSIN
# Sequence of CYP2D6 (P10635 whole entry): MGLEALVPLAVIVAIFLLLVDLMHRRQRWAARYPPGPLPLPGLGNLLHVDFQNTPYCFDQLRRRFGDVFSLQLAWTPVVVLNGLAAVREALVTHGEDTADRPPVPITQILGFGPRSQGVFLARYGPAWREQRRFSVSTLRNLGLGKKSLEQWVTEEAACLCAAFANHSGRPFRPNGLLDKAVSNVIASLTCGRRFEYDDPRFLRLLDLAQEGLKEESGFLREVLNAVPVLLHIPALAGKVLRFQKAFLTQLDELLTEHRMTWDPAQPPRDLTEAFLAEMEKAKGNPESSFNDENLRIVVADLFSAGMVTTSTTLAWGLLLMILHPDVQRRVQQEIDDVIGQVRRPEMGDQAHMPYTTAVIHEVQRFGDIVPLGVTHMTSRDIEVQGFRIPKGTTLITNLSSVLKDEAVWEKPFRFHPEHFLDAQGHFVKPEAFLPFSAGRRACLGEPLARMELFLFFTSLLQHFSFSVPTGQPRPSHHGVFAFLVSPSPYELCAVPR
compound,measurement,setting,value
"CCC(=O)N[C@@H]1CCCc2c(-c3ccc4c(c3)CCC(=O)N4C)cncc21 [Baxdrostat, reference compound]",pIC50,"human CYP11B2; G-402 CYP11B2 cells, 0.2 μM 11-deoxycorticosterone, 16 hours, read-out: hCYP11B2 (AS) Abs IC50",7.55
same,hCYP11B ½ Selectivity Fold,human CYP11B2; hCYP11B1 IC50 relative to hCYP11B2 IC50,119.99 Fold
same,pIC50,CYP1A2,< 4.30
same,pIC50,CYP2D6,< 4.30
same,Aldosterone Concentration in Plasma,"aldosterone synthesis; 0.05 mg/kg oral, 0.5 h",846.13 pg/mL
same,Aldosterone Concentration in Plasma,aldosterone synthesis; [2],964.09 pg/mL
same,Aldosterone Concentration in Plasma,"aldosterone synthesis; 0.05 mg/kg oral, 2 h",568.08 pg/mL
same,Aldosterone Concentration in Plasma,"aldosterone synthesis; 0.05 mg/kg oral, 4 h",119.97 pg/mL
same,Aldosterone Concentration in Plasma,"aldosterone synthesis; 0.05 mg/kg oral, 6 h",101.14 pg/mL
same,Aldosterone Concentration in Plasma,"aldosterone synthesis; 0.05 mg/kg oral, 12 h",139.85 pg/mL
same,Aldosterone Concentration in Plasma,"aldosterone synthesis; 0.05 mg/kg oral, Pre-dose",292.42 pg/mL
same,Aldosterone Concentration in Plasma,"aldosterone synthesis; 0.5 mg/kg oral, 0.5 h",593.37 pg/mL
same,Aldosterone Concentration in Plasma,aldosterone synthesis; [3],361.74 pg/mL
same,Aldosterone Concentration in Plasma,"aldosterone synthesis; 0.5 mg/kg oral, 2 h",119.96 pg/mL
same,Aldosterone Concentration in Plasma,"aldosterone synthesis; 0.5 mg/kg oral, 4 h",83.97 pg/mL
same,Aldosterone Concentration in Plasma,"aldosterone synthesis; 0.5 mg/kg oral, 6 h",86.11 pg/mL
same,Aldosterone Concentration in Plasma,"aldosterone synthesis; 0.5 mg/kg oral, 12 h",92.61 pg/mL
same,Aldosterone Concentration in Plasma,"aldosterone synthesis; 0.5 mg/kg oral, Pre-dose",126.77 pg/mL
same,Cortisol Concentration in Plasma,"cortisol levels; 0.05 mg/kg oral, 0.5 h",1136.1 pg/mL
same,Cortisol Concentration in Plasma,cortisol levels; [2],1293.5 pg/mL
same,Cortisol Concentration in Plasma,"cortisol levels; 0.05 mg/kg oral, 2 h",1527.0 pg/mL
same,Cortisol Concentration in Plasma,"cortisol levels; 0.05 mg/kg oral, 4 h",949.2 pg/mL
same,Cortisol Concentration in Plasma,"cortisol levels; 0.05 mg/kg oral, 6 h",499.4 pg/mL
same,Cortisol Concentration in Plasma,"cortisol levels; 0.05 mg/kg oral, 12 h",392.6 pg/mL
same,Cortisol Concentration in Plasma,"cortisol levels; 0.05 mg/kg oral, Pre-dose",784.2 pg/mL
same,Cortisol Concentration in Plasma,"cortisol levels; 0.5 mg/kg oral, 0.5 h",1004.1 pg/mL
same,Cortisol Concentration in Plasma,cortisol levels; [3],964.8 pg/mL
same,Cortisol Concentration in Plasma,"cortisol levels; 0.5 mg/kg oral, 2 h",1288.5 pg/mL
same,Cortisol Concentration in Plasma,"cortisol levels; 0.5 mg/kg oral, 4 h",556.6 pg/mL
same,Cortisol Concentration in Plasma,"cortisol levels; 0.5 mg/kg oral, 6 h",337.0 pg/mL
same,Cortisol Concentration in Plasma,"cortisol levels; 0.5 mg/kg oral, 12 h",344.6 pg/mL
same,Cortisol Concentration in Plasma,"cortisol levels; 0.5 mg/kg oral, Pre-dose",596.4 pg/mL
same,Cmax,"[1]; 0.05 mg/kg, 0.05mpk oral",6.13 ng/mL
same,Tmax,"[1]; 0.05 mg/kg, 0.05mpk oral",2 h
same,half-life,"[1]; 0.05 mg/kg, 0.05mpk oral",10.9 h
same,AUC(0-t),"[1]; 0.05 mg/kg, 0.05mpk oral",90.3 ng·h/mL
same,Cmax,"[1]; 0.5 mg/kg, 0.5mpk oral",56.1 ng/mL
same,Tmax,"[1]; 0.5 mg/kg, 0.5mpk oral",2 h
same,half-life,"[1]; 0.5 mg/kg, 0.5mpk oral",9.25 h
same,AUC(0-t),"[1]; 0.5 mg/kg, 0.5mpk oral",606 ng·h/mL
